Data: patent US11214803B2, “Modulators of YAP1 expression” (Ionis Pharmaceuticals, Inc., priority 2019, dated 2022)
Strand notation (5' to 3'): a small letter for the sugar, then the base; units joined by * are phosphorothioate-linked, units joined directly phosphodiester-linked; [ ] holds rarer units or linkages, { } end groups; capitals alone tell only the bases. k = constrained ethyl (cEt); [5mC] = 5-methylcytosine; d = 2'-deoxy (DNA)

Tested on: Yap1 mRNA
Assay: Antisense inhibition of human Yap1 in A-431 cells by cEt gapmers, single dose (Example 4, RTS4814)
Type: cell-based
Method: Modified oligonucleotides were designed to target a Yap1 nucleic acid and were tested for their effect on Yap1 mRNA level in vitro. The modified oligonucleotides were tested in a series of experiments that had similar culture conditions. Cultured A-431 cells at a density of 5,000 cells per well were treated using free uptake with 2,000 nM of modified oligonucleotide. After a treatment period of approximately 48 hours, RNA was isolated from the cells and Yap1 mRNA levels were measured by quantitative real-time RTPCR. Human primer probe set RTS4814 was used to measure mRNA levels. Yap1 mRNA levels were normalized to total RNA content, as measured by RIBOGREEN®. Results are presented in the tables below as percent control of the amount of Yap1 mRNA relative to untreated control cells (% UTC). The modified oligonucleotides with percent control values marked with an asterisk (*) target the amplicon region of the primer probe set. Additional assays may be used to measure the potency and efficacy of the modified oligonucleotides targeting the amplicon region.
The newly designed modified oligonucleotides in the Tables below were designed as 3-10-3 cEt gapmers. The gapmers are 16 nucleosides in length, wherein the central gap segment comprises of ten 2′-deoxynucleosides and is flanked by wing segments on the 5′ direction and the 3′ direction comprising three nucleosides each. Each nucleoside in the 5′ wing segment and each nucleoside in the 3′ wing segment has a cEt sugar modification. The internucleoside linkages throughout each gapmer are phosphorothioate (P═S) linkages. All cytosine residues throughout each gapmer are 5-methylcytosines.
“Start site” indicates the 5′-most nucleoside to which the gapmer is targeted in the human gene sequence. “Stop site” indicates the 3′-most nucleoside to which the gapmer is targeted human gene sequence. […] Activity of the modified oligonucleotide may be defined in a different experiment.

[1] = Yap1 mRNA remaining as percent of untreated control, 3-10-3 cEt gapmers, A-431 cells, Table 36
[2] = Table 16, A-431 cells, 5,000 cells per well, free uptake, 2,000 nM, approximately 48 hours, RTS4814, normalized to RIBOGREEN, Yap1 mRNA relative to untreated control cells
[3] = Yap1 mRNA remaining as percent of untreated control, 3-10-3 cEt gapmers, A-431 cells, Table 37
[4] = Table 17, A-431 cells, 5,000 cells per well, free uptake, 2,000 nM, approximately 48 hours, RTS4814, normalized to RIBOGREEN, Yap1 mRNA relative to untreated control cells
[5] = Table 14, A-431 cells, 5,000 cells per well, free uptake, 2,000 nM, approximately 48 hours, RTS4814, normalized to RIBOGREEN, Yap1 mRNA relative to untreated control, * = targets amplicon region of primer probe set

1075574 (antisense kA*kG*kT*d[5mC]*dA*dA*dG*dG*dA*dA*d[5mC]*d[5mC]*dT*kT*k[5mC]*kT) [compound 1075574]
YAP1 (% UTC) [1]: 47 % UTC

1076514 (antisense k[5mC]*k[5mC]*kT*dT*dA*dG*dG*dA*dG*dA*dT*dG*d[5mC]*kA*k[5mC]*k[5mC]) [Compound 1076514]
YAP1 (% UTC) [2]: 18 % UTC

1074807 (k[5mC]*k[5mC]*kA*dT*dA*dT*dA*dG*dA*dA*dG*dG*d[5mC]*kA*kT*kG; antisense) [compound 1074807]
YAP1 (% UTC) [3]: 75 % UTC

1075670 (antisense kT*kA*kT*dA*dT*dA*dT*dG*dA*dT*dG*dG*dA*k[5mC]*kT*kG) [compound 1075670]
YAP1 (% UTC) [1]: 39 % UTC

1074199 (antisense kG*k[5mC]*k[5mC]*dG*dG*dT*dT*dG*d[5mC]*d[5mC]*d[5mC]*dG*dG*kG*kT*k[5mC]) [compound 1074199]
YAP1 (% UTC) [3]: 101 % UTC

1074391 (kG*kT*k[5mC]*dA*dG*dA*dA*d[5mC]*dT*d[5mC]*dA*dA*dA*kG*k[5mC]*kT; antisense) [compound 1074391]
YAP1 (% UTC) [3]: 14 % UTC

1076002 (kA*kT*kT*dT*dA*dA*dT*dG*dG*d[5mC]*dT*dT*dG*k[5mC]*kA*kT; antisense) [Compound 1076002]
YAP1 (% UTC) [2]: 21 % UTC

1075171 (antisense k[5mC]*k[5mC]*k[5mC]*d[5mC]*dA*dA*dT*dA*dT*dA*dA*dA*dG*kA*kA*k[5mC]) [Compound 1075171]
YAP1 (% UTC) [4]: 88 % UTC

1075040 (antisense kT*kT*kA*dT*dA*dA*dA*dG*dA*dG*dG*d[5mC]*dT*k[5mC]*kA*kG) [Compound 1075040]
YAP1 (% UTC) [5]: 10 % UTC

1075361 (kT*k[5mC]*kT*dT*dA*dA*dG*dG*dG*dA*dA*dT*dG*kT*kA*kT; antisense) [Compound 1075361]
YAP1 (% UTC) (Table 15, A-431 cells, 5,000 cells per well, free uptake, 2,000 nM, approximately 48 hours, RTS4814, normalized to RIBOGREEN, Yap1 mRNA relative to untreated control, * = targets amplicon region of primer probe set): 69 % UTC

1075779 (kG*kT*kA*dT*dT*dA*d[5mC]*dA*dA*dA*d[5mC]*dT*dG*kA*kT*kT; antisense) [Compound 1075779]
YAP1 (% UTC) [4]: 28 % UTC

1075808 (kG*k[5mC]*kA*dA*dT*dA*dG*dA*dG*dT*dA*dA*d[5mC]*k[5mC]*kA*kG; antisense) [Compound 1075808]
YAP1 (% UTC) [5]: 3 % UTC

1074231 (antisense kA*kA*kA*dG*dA*dA*dG*dA*d[5mC]*dT*dG*dT*d[5mC]*kG*kA*kA) [compound 1074231]
YAP1 (% UTC) [3]: 8 % UTC
